pKi: −log10 of the molar value.
Legend:
[1] = target: Beta-2 adrenergic receptor (Homo sapiens) (UniProt P07550); experiment: Inhibition of beta2 adrenergic receptor at 10 uM
[2] = target: 5-hydroxytryptamine receptor 1B (Homo sapiens, UniProt P28222); experiment: Inhibition of 5-HT1B receptor
[3] = target: T1, Muscarinic acetylcholine receptor M4 (Homo sapiens) (UniProt P08173); experiment: Inhibition of M4 muscarinic receptor at 10 uM
T1 sequence (whole entry): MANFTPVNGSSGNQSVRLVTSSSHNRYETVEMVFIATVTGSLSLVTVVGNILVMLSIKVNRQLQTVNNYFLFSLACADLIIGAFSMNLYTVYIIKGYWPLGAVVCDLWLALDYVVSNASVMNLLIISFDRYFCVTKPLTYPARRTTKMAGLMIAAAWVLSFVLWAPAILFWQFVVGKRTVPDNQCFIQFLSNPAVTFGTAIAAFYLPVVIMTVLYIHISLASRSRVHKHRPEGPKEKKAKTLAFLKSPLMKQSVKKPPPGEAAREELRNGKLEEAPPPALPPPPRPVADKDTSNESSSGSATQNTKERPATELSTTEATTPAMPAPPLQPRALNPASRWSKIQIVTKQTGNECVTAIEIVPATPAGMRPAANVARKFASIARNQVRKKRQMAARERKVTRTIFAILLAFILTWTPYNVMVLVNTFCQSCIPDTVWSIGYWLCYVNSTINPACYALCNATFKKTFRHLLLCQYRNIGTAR

[4] = target: Mu-type opioid receptor (Homo sapiens) (UniProt P35372); experiment: Inhibition of mu opioid receptor at 10 uM
[5] = target: 5-hydroxytryptamine receptor 7 (Homo sapiens) (UniProt P34969); experiment: Inhibition of 5-HT7 receptor at 10 uM
[6] = target: D(2) dopamine receptor (Homo sapiens) (UniProt P14416); experiment: Inhibition of D2 dopamine receptor at 10 uM
[7] = target: 5-hydroxytryptamine receptor 2A (Homo sapiens) (UniProt P28223); experiment: Inhibition of 5-HT2A receptor at 10 uM
[8] = target: Histamine H4 receptor (Homo sapiens) (UniProt Q9H3N8); experiment: Inhibition of H4 receptor at 10 uM
[9] = target: Histamine H2 receptor (Homo sapiens) (UniProt P25021); experiment: Inhibition of H2 receptor at 10 uM
[10] = target: T2, Muscarinic acetylcholine receptor M5 (Homo sapiens) (UniProt P08912); experiment: Inhibition of M5 muscarinic receptor at 10 uM
T2 sequence (whole entry): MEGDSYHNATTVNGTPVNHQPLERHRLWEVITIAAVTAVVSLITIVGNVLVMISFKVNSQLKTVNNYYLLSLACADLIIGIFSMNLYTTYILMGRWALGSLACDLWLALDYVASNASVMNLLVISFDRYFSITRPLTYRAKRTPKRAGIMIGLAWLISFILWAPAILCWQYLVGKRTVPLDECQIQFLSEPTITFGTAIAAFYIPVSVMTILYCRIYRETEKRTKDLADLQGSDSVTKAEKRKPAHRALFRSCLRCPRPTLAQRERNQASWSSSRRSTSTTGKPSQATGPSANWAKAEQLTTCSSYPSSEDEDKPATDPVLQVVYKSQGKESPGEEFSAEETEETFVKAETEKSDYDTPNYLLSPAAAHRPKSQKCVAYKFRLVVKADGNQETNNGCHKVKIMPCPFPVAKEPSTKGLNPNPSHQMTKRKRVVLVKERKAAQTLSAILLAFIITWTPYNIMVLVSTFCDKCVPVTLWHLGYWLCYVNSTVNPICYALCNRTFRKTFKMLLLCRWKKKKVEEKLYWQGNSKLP

[11] = target: 5-hydroxytryptamine receptor 2B (Homo sapiens, UniProt P41595); experiment: Inhibition of 5-HT2B receptor at 10 uM
[12] = target: T3, Alpha-1B adrenergic receptor (Homo sapiens) (UniProt P35368); experiment: Inhibition of Alpha-1B adrenergic receptor at 10 uM
T3 sequence (whole entry): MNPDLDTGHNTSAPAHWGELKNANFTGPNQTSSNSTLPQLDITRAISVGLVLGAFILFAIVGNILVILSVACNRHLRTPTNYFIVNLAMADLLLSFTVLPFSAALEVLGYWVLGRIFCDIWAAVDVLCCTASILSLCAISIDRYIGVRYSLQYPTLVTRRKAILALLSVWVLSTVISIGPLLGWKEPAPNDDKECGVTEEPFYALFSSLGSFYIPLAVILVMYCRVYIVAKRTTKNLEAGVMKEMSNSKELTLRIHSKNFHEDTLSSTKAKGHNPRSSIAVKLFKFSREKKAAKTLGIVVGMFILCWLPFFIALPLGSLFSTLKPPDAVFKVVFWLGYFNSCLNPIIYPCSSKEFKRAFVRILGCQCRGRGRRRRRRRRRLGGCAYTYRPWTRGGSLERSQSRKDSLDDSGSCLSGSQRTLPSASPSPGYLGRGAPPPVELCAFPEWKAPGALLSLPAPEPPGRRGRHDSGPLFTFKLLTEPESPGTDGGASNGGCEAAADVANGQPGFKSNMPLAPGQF

[13] = target: Beta-3 adrenergic receptor (Homo sapiens) (UniProt P13945); experiment: Inhibition of beta3 adrenergic receptor at 10 uM
[14] = target: 5-hydroxytryptamine receptor 1E (Homo sapiens) (UniProt P28566); experiment: Inhibition of 5HT1E receptor at 10 uM
[15] = target: Sodium-dependent serotonin transporter (Homo sapiens) (UniProt P31645); experiment: Inhibition of 5HT transporter at 10 uM
[16] = target: Sodium-dependent dopamine transporter (Homo sapiens) (UniProt Q01959); experiment: Inhibition of dopamine transporter at 10 uM
[17] = target: D(1B) dopamine receptor (Homo sapiens) (UniProt P21918); experiment: Inhibition of D5 dopamine receptor at 10 uM
[18] = target: D(3) dopamine receptor (Homo sapiens) (UniProt P35462); experiment: Inhibition of D3 dopamine receptor at 10 uM
[19] = target: Sodium-dependent noradrenaline transporter (Homo sapiens) (UniProt P23975); experiment: Inhibition of norepinephrine receptor at 10 uM
[20] = target: Histamine H1 receptor (Homo sapiens) (UniProt P35367); experiment: Inhibition of H1 receptor at 10 uM
[21] = target: 5-hydroxytryptamine receptor 5A (Homo sapiens) (UniProt P47898); experiment: Inhibition of 5-HT5A receptor at 10 uM
[22] = target: Muscarinic acetylcholine receptor M3 (Homo sapiens) (UniProt P20309); experiment: Inhibition of M3 muscarinic receptor at 10 uM

Sequence of Sodium-dependent noradrenaline transporter (Homo sapiens) (P23975 whole entry): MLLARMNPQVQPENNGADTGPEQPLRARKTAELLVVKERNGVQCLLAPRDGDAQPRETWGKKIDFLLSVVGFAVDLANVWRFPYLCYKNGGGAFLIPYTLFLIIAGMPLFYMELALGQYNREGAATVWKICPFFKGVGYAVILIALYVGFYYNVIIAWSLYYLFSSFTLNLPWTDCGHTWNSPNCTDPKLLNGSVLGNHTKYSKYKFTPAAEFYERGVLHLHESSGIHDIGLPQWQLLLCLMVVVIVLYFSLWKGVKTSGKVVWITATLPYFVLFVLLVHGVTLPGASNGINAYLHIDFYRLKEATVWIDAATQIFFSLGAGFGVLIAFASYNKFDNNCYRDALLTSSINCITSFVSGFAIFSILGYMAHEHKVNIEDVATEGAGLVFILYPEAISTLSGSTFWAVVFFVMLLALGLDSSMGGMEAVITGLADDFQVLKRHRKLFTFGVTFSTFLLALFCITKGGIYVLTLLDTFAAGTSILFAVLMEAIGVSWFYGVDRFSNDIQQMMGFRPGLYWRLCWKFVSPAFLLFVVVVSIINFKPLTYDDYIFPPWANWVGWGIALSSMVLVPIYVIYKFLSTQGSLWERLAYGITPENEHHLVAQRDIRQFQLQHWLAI
Sequence of Sodium-dependent dopamine transporter (Homo sapiens) (Q01959 whole entry): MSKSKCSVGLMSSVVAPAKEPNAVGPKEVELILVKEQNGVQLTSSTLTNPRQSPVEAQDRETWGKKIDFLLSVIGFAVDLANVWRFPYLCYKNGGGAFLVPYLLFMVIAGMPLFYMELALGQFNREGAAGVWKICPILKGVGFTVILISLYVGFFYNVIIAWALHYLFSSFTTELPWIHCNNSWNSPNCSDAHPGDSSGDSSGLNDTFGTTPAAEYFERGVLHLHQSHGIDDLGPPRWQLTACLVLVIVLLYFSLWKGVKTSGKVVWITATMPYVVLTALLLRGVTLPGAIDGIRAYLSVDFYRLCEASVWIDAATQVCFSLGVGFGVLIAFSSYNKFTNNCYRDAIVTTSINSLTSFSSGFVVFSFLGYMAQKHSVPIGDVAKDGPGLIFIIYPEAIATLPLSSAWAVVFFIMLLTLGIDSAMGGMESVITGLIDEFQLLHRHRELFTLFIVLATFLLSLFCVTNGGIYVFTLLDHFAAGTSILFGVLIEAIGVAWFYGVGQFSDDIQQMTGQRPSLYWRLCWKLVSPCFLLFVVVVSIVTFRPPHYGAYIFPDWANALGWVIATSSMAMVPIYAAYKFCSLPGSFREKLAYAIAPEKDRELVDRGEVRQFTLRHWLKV
Sequence of D(2) dopamine receptor (Homo sapiens) (P14416 whole entry): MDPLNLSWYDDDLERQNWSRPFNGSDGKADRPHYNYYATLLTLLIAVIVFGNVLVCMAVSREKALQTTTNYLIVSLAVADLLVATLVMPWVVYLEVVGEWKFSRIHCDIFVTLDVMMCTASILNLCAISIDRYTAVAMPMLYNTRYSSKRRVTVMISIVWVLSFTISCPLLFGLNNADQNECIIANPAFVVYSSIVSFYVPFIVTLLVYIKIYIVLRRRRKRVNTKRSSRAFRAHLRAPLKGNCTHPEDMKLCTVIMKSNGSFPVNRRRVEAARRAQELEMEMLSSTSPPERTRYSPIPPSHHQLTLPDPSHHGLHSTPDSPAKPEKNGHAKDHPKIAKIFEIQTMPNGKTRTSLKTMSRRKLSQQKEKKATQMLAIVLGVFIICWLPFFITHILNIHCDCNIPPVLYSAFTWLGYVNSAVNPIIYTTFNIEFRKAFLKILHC
Sequence of 5-hydroxytryptamine receptor 2A (Homo sapiens) (P28223 whole entry): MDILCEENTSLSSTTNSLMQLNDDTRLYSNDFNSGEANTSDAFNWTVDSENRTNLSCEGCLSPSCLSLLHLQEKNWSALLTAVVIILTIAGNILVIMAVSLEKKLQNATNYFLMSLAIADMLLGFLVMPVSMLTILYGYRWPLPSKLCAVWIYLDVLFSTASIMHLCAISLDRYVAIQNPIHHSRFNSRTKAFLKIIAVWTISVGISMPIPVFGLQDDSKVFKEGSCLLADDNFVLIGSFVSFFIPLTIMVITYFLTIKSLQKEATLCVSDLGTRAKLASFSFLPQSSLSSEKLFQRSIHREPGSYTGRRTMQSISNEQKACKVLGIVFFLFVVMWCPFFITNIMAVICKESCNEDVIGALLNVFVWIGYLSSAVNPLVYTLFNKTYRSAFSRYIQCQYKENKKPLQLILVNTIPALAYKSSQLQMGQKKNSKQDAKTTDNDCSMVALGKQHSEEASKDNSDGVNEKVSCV
Sequence of Beta-3 adrenergic receptor (Homo sapiens) (P13945 whole entry, looked up): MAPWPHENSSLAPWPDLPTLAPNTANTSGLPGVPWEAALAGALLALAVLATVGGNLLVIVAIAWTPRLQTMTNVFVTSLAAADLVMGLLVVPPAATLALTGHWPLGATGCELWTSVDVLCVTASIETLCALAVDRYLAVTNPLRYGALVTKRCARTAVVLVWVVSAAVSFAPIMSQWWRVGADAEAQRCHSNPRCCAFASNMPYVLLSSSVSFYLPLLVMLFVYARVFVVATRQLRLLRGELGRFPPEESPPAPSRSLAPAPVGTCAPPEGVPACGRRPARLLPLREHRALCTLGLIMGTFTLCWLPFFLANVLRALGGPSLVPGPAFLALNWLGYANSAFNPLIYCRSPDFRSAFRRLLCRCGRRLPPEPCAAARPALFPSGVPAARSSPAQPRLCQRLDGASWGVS
Sequence of D(1B) dopamine receptor (Homo sapiens) (P21918 whole entry): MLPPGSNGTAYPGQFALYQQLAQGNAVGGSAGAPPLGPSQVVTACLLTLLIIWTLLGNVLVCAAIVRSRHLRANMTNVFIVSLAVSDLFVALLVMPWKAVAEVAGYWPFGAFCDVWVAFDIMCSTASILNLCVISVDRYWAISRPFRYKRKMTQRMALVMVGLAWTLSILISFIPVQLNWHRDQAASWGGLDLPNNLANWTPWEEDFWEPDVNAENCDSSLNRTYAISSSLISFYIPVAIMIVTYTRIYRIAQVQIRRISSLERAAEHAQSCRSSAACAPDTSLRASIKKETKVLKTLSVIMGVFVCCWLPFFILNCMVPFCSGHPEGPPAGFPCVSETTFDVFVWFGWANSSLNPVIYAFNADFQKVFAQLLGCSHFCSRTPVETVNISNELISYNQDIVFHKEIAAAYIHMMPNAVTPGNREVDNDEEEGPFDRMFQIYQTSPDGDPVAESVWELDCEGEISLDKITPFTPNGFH
Sequence of D(3) dopamine receptor (Homo sapiens) (P35462 whole entry): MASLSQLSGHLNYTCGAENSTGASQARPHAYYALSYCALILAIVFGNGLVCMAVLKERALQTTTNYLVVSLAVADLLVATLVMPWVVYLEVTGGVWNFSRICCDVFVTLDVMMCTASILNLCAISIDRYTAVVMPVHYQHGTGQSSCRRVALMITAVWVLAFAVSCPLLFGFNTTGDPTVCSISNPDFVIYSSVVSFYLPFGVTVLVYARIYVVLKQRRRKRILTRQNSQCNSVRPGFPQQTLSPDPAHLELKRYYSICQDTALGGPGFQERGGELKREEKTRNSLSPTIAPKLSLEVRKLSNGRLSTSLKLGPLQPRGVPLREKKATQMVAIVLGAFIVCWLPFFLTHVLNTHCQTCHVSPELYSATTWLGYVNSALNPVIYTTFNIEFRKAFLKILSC
Sequence of Histamine H1 receptor (Homo sapiens) (P35367 whole entry): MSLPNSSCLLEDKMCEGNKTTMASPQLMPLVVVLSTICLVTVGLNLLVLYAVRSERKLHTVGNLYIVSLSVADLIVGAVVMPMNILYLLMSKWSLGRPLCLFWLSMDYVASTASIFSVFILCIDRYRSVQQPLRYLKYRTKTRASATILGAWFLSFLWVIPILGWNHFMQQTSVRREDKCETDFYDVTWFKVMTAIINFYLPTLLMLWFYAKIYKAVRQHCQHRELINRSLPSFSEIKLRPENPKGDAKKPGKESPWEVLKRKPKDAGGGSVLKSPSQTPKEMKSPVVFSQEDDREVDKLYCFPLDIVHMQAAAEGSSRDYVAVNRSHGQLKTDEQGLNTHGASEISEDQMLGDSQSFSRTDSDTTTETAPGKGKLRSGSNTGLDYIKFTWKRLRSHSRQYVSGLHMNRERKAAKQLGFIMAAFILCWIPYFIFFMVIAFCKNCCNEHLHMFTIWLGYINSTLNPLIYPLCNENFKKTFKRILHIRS
Sequence of Histamine H2 receptor (Homo sapiens) (P25021 whole entry): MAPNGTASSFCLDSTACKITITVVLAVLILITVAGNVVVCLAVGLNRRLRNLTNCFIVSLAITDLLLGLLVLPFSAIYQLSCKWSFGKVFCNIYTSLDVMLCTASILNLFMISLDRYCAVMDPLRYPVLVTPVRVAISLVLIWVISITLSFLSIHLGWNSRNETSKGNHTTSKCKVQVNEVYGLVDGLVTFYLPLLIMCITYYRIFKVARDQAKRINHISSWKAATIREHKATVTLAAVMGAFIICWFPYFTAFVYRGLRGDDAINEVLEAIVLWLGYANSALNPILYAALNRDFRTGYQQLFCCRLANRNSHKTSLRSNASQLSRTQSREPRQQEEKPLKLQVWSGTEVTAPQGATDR
Sequence of 5-hydroxytryptamine receptor 5A (Homo sapiens) (P47898 whole entry): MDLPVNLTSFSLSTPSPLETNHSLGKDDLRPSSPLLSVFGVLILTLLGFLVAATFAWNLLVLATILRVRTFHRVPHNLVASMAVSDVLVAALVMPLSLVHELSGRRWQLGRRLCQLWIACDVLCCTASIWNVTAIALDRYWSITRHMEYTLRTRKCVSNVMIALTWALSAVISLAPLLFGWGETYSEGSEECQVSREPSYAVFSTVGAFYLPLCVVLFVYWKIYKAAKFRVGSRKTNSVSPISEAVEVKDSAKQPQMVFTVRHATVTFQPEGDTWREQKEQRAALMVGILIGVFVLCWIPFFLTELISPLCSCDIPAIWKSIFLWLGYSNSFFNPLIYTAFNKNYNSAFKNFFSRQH

CCOc1ccc(-c2nn3c(C)cc(C)nc3c2CC(=O)N(CC)CC)cc1
< 50%: inhibition [1] | inhibition [3] | inhibition [4] | inhibition [5] | inhibition [6] | inhibition [7] | inhibition [8] | inhibition [9] | inhibition [10] | inhibition [11] | inhibition [12] | inhibition [13] | inhibition [14] | inhibition [15] | inhibition [16] | inhibition [17] | inhibition [18] | inhibition [19] | inhibition [20] | inhibition [21] | inhibition [22]
< 5.00: pKi [2]

CCCOc1ccc(-c2nn3c(C)cc(C)nc3c2CC(=O)N(CC)CC)cc1
< 50%: inhibition [1] | inhibition [3] | inhibition [4] | inhibition [5] | inhibition [6] | inhibition [7] | inhibition [8] | inhibition [9] | inhibition [10] | inhibition [11] | inhibition [13] | inhibition [14] | inhibition [15] | inhibition [16] | inhibition [17] | inhibition [18] | inhibition [19] | inhibition [20] | inhibition [21] | inhibition [22]
< 5.00: pKi [2]

CCCCOc1ccc(-c2nn3c(C)cc(C)nc3c2CC(=O)N(CC)CC)cc1
< 50%: inhibition [1] | inhibition [3] | inhibition [4] | inhibition [5] | inhibition [6] | inhibition [7] | inhibition [8] | inhibition [9] | inhibition [10] | inhibition [12] | inhibition [13] | inhibition [14] | inhibition [15] | inhibition [16] | inhibition [17] | inhibition [18] | inhibition [19] | inhibition [20] | inhibition [21] | inhibition [22]
5.80: pKi [2]

C#CCOc1ccc(-c2nn3c(C)cc(C)nc3c2CC(=O)N(CC)CC)cc1
< 5.00: pKi [2]
< 50%: inhibition [1] | inhibition [3] | inhibition [4] | inhibition [5] | inhibition [6] | inhibition [7] | inhibition [8] | inhibition [9] | inhibition [10] | inhibition [11] | inhibition [12] | inhibition [13] | inhibition [14] | inhibition [15] | inhibition [16] | inhibition [17] | inhibition [18] | inhibition [19] | inhibition [20] | inhibition [21] | inhibition [22]
